Values of other authors, collected in US20250057162A1, “FUNGICIDAL COMPOSITIONS” (SYNGENTA CROP PROTECTION AG, priority 2021, published 2025).

Test system: Mycosphaerella graminicola (Septoria tritici)

Structure (SMILES): COc1ccnc(C(=O)N[C@@H](C)C(=O)O[C@@H](C)C(c2ccc(F)cc2)c2ccc(F)cc2)c1OC(C)=O [Florylpicoxamid, (1S)-2,2-bis(4-fluorophenyl)-1-methylethyl N-{[3-(acetyloxy)-4-methoxy-2-pyridyl]carbonyl}-L-alaninate]
- control of wheat leaf blotch disease (in words): particularly effective
